The source of these data is patent publication US6906093B2, “Indolinone combinatorial libraries and related products and methods for the treatment of disease” (Sugen, Inc., priority 1995, dated 2005).

Read-outs that look alike come from different tables or passages of the source.

One assay deals with T1, FLK-1 receptor (Mus musculus, UniProt P35918).
T1 construct: expressed in transfected cells; host or cells: NIH3T3 C7 #3
Nature of the assay: FLK-1 ELISA in FLK-1/NIH3T3 cells. The format is cell-based. A general note: In an ELISA, binding on a coated surface is turned into a signal by an enzyme label.

Assay [1] has as its system HUV-EC-C cells. Kind of assay: HUV-EC-C assay, VEGF-induced [3H]thymidine incorporation. The format is cell-based, human. The following applies: VEGF-stimulated HUV-EC cells; read-out: Mitogenesis in Endothelial Cells, [3H] Thymidine Incorporation, HUV-EC Assay, VEGF. Background: Uptake of a labelled nucleoside into DNA is a usual measure of proliferation.
Experimental: (§1) Repeat the wash two more times with D-PBS, resuspend the cells in about 1 ml assay medium/15 cm^2 of tissue culture flask.
(§2) Add cells to 96-well flat-bottom plates at 100 μl/well or 0.8-1.0×10^4 cells/well; incubate ˜24 h at 37° C., 5% CO2.
(§3) Use the same assay medium as mentioned in day 0, step 2 above. Titrations are made by adding 90 μl/well of drug at 200 μM (4× the final well concentration) to the top well of a particular plate column. Since the stock drug concentration-is usually 20 mM in DMSO, the 200 μM drug concentration contains 2% DMSO.
(§4) Therefore, diluent made up to 2% DMSO in assay medium (F12K+0.5% fetal bovine serum) is used as diluent for the drug titrations in order to dilute the drug but keep the DMSO concentration constant. Add this diluent to the remaining wells in the column at 60 μl/well. Take 60 μl from the 120 μl of 200 μM drug dilution in the top well of the column and mix with the 60 μl in the second well of the column. Take 60 μl from this well and mix with the 60 μl in the third well of the column, and so on until two-fold titrations-are completed. When the next-to-the-last well is mixed, take 60 μl of the 120 μl in this well and discard it. Leave the last well with 60 μl of DMSO/media diluent as a non-drug-containing control. […] 9 columns of titrated drug, enough for triplicate wells each for 1) VEGF (obtained from Pepro Tech Inc., catalogue no. 100-200, 2) endothelial cell growth factor (ECGF) (also known as acidic fibroblast growth factor, or aFGF) (obtained from Boehringer Mannheim Biochemica, catalogue no. […] ECGF comes as a preparation with sodium heparin.
(§5) Transfer 50 μl/well of the drug dilutions to the 96-well assay plates containing the 0.8-1.0×10^4 cells/100 μl/well of the HUV-EC-C cells from day 0 and incubate ˜2 h at 37° C., 5% CO2.
(§6) In triplicate, add 50 μl/well of 80 μg/ml VEGF, 20 ng/ml ECGF, or media control to each drug condition. As with the drugs, the growth factor concentrations are 4× the desired final concentration. Use the assay media from day 0 step 2 to make the concentrations of growth factors.
Freeze plates overnight at −20° C.
Assay [2] relates to HUV-EC-C cells. Nature of the assay: HUV-EC-C assay, a-FGF (ECGF)-induced [3H]thymidine incorporation. The format is cell-based, human. The following applies: a-FGF-stimulated HUV-EC cells; read-out: Mitogenesis in Endothelial Cells, [3H] Thymidine Incorporation, HUV-EC Assay, a-FGF.
Experimental: as §1, §2, §3, §4, §5, §6
Freeze plates overnight at −20° C.
The next assay deals with T2, EGFR (Homo sapiens, UniProt P00533).
T2 construct: expressed in transfected cells; host or cells: NIH 3T3/C7 (3T3/EGFRc7)
Kind of assay: EGF-Induced BrdU Incorporation Assay in 3T3/EGFR cells. The format is cell-based. As to conditions: EGF ligand; read-out: Mitogenesis in 3T3/EGFR Cells, BrdU Incorporation, EGFR EGF Ligand IC50.

[3] abbreviates: ELISA, FLK-1/NIH3T3 cells, VEGF stimulated.

T1 sequence (P35918 20-1345): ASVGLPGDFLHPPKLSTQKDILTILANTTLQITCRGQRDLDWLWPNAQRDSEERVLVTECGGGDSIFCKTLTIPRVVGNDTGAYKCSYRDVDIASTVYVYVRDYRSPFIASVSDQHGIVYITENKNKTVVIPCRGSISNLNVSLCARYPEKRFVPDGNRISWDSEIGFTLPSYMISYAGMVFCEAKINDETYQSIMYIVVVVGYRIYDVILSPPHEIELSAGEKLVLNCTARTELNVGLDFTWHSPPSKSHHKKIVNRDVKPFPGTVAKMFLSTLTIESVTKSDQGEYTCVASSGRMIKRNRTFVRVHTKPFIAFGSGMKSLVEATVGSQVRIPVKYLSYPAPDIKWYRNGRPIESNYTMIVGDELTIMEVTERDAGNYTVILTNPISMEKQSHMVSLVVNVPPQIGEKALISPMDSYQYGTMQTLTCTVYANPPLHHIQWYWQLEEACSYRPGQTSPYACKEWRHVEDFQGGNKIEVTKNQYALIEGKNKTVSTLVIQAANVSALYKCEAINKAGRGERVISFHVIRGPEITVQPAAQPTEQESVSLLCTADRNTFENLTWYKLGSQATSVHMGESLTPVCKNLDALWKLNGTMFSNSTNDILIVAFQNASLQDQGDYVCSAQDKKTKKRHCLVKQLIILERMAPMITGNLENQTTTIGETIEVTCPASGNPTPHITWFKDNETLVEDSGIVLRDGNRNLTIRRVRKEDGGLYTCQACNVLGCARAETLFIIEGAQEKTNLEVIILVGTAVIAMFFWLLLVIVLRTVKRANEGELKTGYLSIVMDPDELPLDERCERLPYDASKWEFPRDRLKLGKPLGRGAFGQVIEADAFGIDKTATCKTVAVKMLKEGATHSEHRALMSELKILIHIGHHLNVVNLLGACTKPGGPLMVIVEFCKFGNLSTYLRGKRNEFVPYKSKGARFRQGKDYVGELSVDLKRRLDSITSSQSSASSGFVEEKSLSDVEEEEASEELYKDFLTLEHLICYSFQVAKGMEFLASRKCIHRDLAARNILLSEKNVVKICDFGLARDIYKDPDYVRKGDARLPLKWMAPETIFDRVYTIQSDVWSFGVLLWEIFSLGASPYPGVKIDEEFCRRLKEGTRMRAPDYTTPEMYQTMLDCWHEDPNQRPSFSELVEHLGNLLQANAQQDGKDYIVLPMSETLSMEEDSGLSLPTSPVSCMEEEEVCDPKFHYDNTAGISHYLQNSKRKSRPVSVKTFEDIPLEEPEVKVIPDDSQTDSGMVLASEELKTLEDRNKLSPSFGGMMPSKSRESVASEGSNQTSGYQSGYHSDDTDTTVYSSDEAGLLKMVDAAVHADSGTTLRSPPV
T2 sequence (P00533 25-1210): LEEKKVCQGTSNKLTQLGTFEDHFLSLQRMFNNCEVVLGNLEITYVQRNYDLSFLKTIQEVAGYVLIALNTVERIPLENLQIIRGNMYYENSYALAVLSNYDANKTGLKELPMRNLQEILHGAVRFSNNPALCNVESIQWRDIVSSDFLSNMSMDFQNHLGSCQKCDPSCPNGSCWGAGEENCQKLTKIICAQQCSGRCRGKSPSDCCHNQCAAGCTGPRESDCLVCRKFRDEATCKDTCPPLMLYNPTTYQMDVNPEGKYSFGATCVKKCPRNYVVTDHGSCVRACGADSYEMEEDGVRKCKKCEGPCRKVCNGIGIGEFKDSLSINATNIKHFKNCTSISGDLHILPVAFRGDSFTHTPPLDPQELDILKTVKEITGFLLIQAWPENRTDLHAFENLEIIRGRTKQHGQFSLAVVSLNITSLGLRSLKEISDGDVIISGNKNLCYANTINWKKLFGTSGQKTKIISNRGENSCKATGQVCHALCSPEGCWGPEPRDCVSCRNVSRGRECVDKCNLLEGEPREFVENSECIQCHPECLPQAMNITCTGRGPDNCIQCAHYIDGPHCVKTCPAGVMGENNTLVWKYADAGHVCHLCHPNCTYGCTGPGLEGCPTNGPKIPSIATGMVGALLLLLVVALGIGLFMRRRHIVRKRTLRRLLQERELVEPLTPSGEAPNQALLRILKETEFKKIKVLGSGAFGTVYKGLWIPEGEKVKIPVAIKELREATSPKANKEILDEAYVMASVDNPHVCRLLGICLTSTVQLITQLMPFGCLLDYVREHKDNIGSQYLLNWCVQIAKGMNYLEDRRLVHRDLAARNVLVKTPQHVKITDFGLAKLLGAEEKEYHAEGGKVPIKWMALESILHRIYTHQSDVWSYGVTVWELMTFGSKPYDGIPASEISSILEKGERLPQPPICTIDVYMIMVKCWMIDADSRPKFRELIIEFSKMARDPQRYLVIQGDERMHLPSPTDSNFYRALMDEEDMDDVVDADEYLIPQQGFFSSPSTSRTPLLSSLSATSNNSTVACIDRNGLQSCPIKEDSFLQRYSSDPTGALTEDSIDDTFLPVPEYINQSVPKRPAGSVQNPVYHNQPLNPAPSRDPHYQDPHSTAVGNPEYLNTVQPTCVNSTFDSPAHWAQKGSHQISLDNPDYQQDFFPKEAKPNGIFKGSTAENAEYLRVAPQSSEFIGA
Experimental for EGFR: Assay 2: EGF-Induced BrdU Incorporation Assay
Protocol • (1) 3T3 engineered cell line: 3T3/EGFRc7 • (2) Cells are seeded at 8000 cells/well in 10% CS, 2 mM Gln in DMEM, in a 96 well plate. […] The negative control wells receive serum free DMEM with 0.1% BSA only; the positive control cells receive the ligand (EGF) but no test compound. […] FixDenat solution is added (50 μl/well) and the plates are incubated at room temperature for 45 minutes on a plate shaker. • (7) The FixDenat solution is thoroughly removed by decanting and tapping the inverted plate on a paper towel. Milk is added (5% dehydrated milk in PBS, 200 μl/well) as a blocking solution and the plate is incubated for 30 minutes at room temperature on a plate shaker. • (8) The blocking solution is removed by decanting and the wells are washed once with PBS. Anti-BrdU-POD solution (1:100 dilution in PBS, 1% BSA) is added (100 μl/well) and the plate is incubated for 90 minutes at room temperature on a plate shaker. • (9) The antibody conjugate is thoroughly removed by decanting and rinsing the wells 5 times with PBS, and the plate is dried by inverting and tapping on a paper towel. • (10) TMB substrate solution is added (100 μl/well) and incubated for 20 minutes at room temperature on a plate shaker until color development is sufficient for photometric detection. • (11) The absorbance of the samples are measured at 410 nm (in “dual wavelength” mode with a filter reading at 490 nm, as a reference wavelength) on a Dynatech ELISA plate reader.

With `CC(=O)Nc1ccc(C=C2C(=O)Nc3ccccc32)cc1` [SU4944, 3-(4-Acetylaminobenzylidenyl)-2-indolinone], at FLK-1 receptor (setting [3]), the IC50 amounted to 8.5 µM.

Consider `CN(C)c1ccc(C=C2C(=O)Nc3ccccc32)cc1` [SU4312, 3-(4-Dimethylaminobenzylidenyl)-2-indolinone], for which the IC50 on FLK-1 receptor (setting [3]) stood at 0.8 µM.

`Cc1c(C=O)[nH]c(C=C2C(=O)Nc3ccccc32)c1C` [SU5405, 3-[(3,4-Dimethyl-2-formylpyrrole-5-yl)methylene)-2-indolinone] showed an IC50 against FLK-1 receptor (setting [3]) of 23.8 µM.

In the case of `Cc1ccc(C=C2C(=O)Nc3ccccc32)s1` [SU5424, 3-[(2-Methylthien-5-yl)methylene]-2-indolinone], the IC50 against FLK-1 receptor (setting [3]) was determined as 2.4 µM.

With `Cc1cc[nH]c1C=C1C(=O)Nc2ccccc21` [SU5404, 3-[(3-Methylpyrrol-2-yl)methylene]-2-indolinone], at FLK-1 receptor (setting [3]), the IC50 is 0.24 µM.

The molecule `Cc1ccsc1C=C1C(=O)Nc2ccccc21` [SU5427, 3-[(3-Methylthien-2-yl)methylene]-2-indolinone] had an IC50 on FLK-1 receptor (setting [3]) of 4.5 µM.

On to `COc1ccc(Br)cc1C=C1C(=O)Nc2ccccc21` [SU4796, 3-(3-bromo-6-methoxybenzylidenyl)-2-indolinone], for which the IC50 in the assay on HUV-EC-C cells [1] was 30.7 µM; with HUV-EC-C cells [2], 35.8 µM.

`O=C1Nc2ccc(Cl)cc2C1=Cc1ccc(Br)cc1` [SU4972, 3-(4-Bromobenzylidenyl)-5-chloro-2-indolinone]: in the assay on HUV-EC-C cells [2], the IC50 is 1.4 µM.

With `O=C1Nc2ccccc2C1=Cc1ccc(O)cc1Cl` [SU4932, 3-(2-chloro-4-hydroxybenzylidenyl)-2-indolinone], on FLK-1 receptor (setting [3]), the IC50 was 2.2 µM.

At FLK-1 receptor (setting [3]), `Cc1csc(C=C2C(=O)Nc3ccccc32)c1` [SU5401, 3-[(4-Methylthien-2-yl)methylene]-2-indolinone] registered an IC50 of 2.9 µM.

The molecule `Cc1c(CCC(=O)O)c[nH]c1C=C1C(=O)Nc2ccccc21` [SU5402, 3-[(3-(2-carboxyethyl)-4-methylpyrrol-5-yl)methylene]-2-indolinone] displayed an IC50 at FLK-1 receptor (setting [3]) of 0.4 µM.

In the case of `CCc1c(C=C2C(=O)Nc3ccccc32)[nH]c(C(=O)O)c1C` [SU5455, 3-[(5-Carboxy-3-ethyl-4-methylpyrrol-2-yl)methylene]-2-indolinone], at FLK-1 receptor (setting [3]), the IC50 amounted to 36.2 µM.

Turning to `CN(C)c1ccc(C=C2C(=O)N(C)c3ccccc32)cc1` [SU4952, 3-(4-Dimethylaminobenzylidenyl)-1-methyl-2-indolinone], the IC50 against FLK-1 receptor (setting [3]) came out at 22.6 µM.

At FLK-1 receptor (setting [3]), `O=C1Nc2ccccc2C1=Cc1cccs1` [SU5208, 3-[(Thien-2-yl)methylene]-2-indolinone] showed an IC50 of 4.7 µM.

Regarding `O=C1Nc2ccccc2C1=Cc1ccc(N2CCOCC2)cc1` [SU4981, 3-[4-(Morpholin-4-yl)benzylidenyl]-2-indolinone], the IC50 amounted to 2.1 µM against FLK-1 receptor (setting [3]) and 20 µM on EGFR.

As to `O=C1Nc2ccccc2C1=Cc1ccc([N+](=O)[O-])o1` [SU5432, 3-[(2-Nitrofuran-5-yl)methylene]-2-indolinone], on FLK-1 receptor (setting [3]), the IC50 is 22.8 µM.

On FLK-1 receptor (setting [3]), `O=C1Nc2ccccc2C1=Cc1ccc(Br)s1` [SU5425, 3-[(2-Bromothiene-5-yl)methylene]-2-indolinone] yielded an IC50 of 51.4 µM.

With `O=C1Nc2ccccc2C1=Cc1cccn1-c1ccc(Cl)cc1` [SU5462], the IC50 with HUV-EC-C cells [1] stood at 0.5 µM; in the assay with HUV-EC-C cells [2], 0.8 µM.

With `CCOC(=O)CCc1c(C=C2C(=O)Nc3ccccc32)[nH]c(C(=O)OCC)c1CC(=O)OCC` [SU5465, 3-[(5-Ethoxycarbonyl-3-ethoxycarbonylethyl-4-ethoxylcarbonylmethylpyrrol-2-yl)methylene]-2-indolinone], the IC50 at EGFR is 50 µM.

The molecule `O=C1Nc2ccccc2C1=Cc1n[nH]cc1Cl` [SU5474, 3-[(4-Chloropyrazol-3-yl)methylene]-2-indolinone] had an IC50 against FLK-1 receptor (setting [3]) of 7.4 µM.

For the molecule `O=C1Nc2ccccc2C1=Cc1ccc(Cl)c(Cl)c1` [SU5201, 3-(3,4-Dichlorobenzylidenyl)-2-indolinone], the IC50 with HUV-EC-C cells [1] was 2.5 µM; with HUV-EC-C cells [2], 2.3 µM.

In the case of `Cc1cc(C=C2C(=O)Nc3ccccc32)[nH]n1` [SU5472, 3-[(3-Methylpyrazol-5-yl)methylene]-2-indolinone], the IC50 against FLK-1 receptor (setting [3]) came to 8.7 µM.

Regarding `O=C1Nc2ccccc2C1=Cc1ccc(-c2cc(C(F)(F)F)cc(C(F)(F)F)c2)o1` [SU5217], the IC50 in the assay with HUV-EC-C cells [1] came out at 9.6 µM; with HUV-EC-C cells [2], 10.5 µM.

In the case of `CCOC(=O)c1c(C)[nH]c(C=C2C(=O)Nc3ccccc32)c1C` [SU5408, 3-[(2,4-Dimethyl-3-ethoxycarbonylpyrrol-5-yl)methylene]-2-indolinone], the IC50 against FLK-1 receptor (setting [3]) was 0.07 µM.

Take `CN(C)c1ccc(C=C2C(=O)Nc3ccc(Cl)cc32)cc1` [SU4967, 5-Chloro-3-(4-dimethylaminobenzylidenyl)-2-indolinone]: the IC50 was determined as 11.2 µM at FLK-1 receptor (setting [3]) and 60 µM at EGFR.

Regarding `O=C1Nc2ccccc2C1=Cc1ccc(I)o1` [SU5409], the IC50 in the assay with HUV-EC-C cells [1] was 26 µM.

The molecule `Cc1cnc(C=C2C(=O)Nc3ccccc32)[nH]1` [SU5468, 3-[(5-Methylimidazol-2-yl)methylene]-2-indolinone] displayed an IC50 on FLK-1 receptor (setting [3]) of 2.7 µM.

For `Cc1ccc(C=C2C(=O)Nc3ccccc32)o1` [SU5430, 3-[(2-Methylfuran-5-yl)methylene]-2-indolinone], the IC50 against FLK-1 receptor (setting [3]) is 73.4 µM.

In the case of `O=C1Nc2ccccc2C1=Cc1c(Br)cnn1Cc1ccc(Cl)cc1` [SU5475, 3-[(4-Bromo-1-(4-chlorobenzyl)pyrazol-5-yl)methylene]-2-indolinone], the IC50 on EGFR was determined as 48 µM.

Turning to `O=C1Nc2ccc(Cl)cc2C1=Cc1ccc(N2CCOCC2)cc1` [SU4983, 5-Chloro-3-(4-(morpholine-4-yl)benzylidenyl)-2-indolinone], the IC50 against FLK-1 receptor (setting [3]) was determined as 4.1 µM.

Turning to `CCc1ccc(C=C2C(=O)Nc3ccccc32)o1` [SU5431], the IC50 against FLK-1 receptor (setting [3]) was 41.2 µM.

Turning to `Cn1cccc1C=C1C(=O)Nc2ccccc21` [SU5464, 3-[(1-Methylpyrrol-2-yl)methylene]-2-indolinone], the values for the IC50 at FLK-1 receptor (setting [3]) and on EGFR were 20.3 µM and 95 µM, respectively.

At FLK-1 receptor (setting [3]), `COc1ccc(OC)c(C=C2C(=O)Nc3ccccc32)c1` [SU4793, 3-(2,5-Dimethoxybenzylidenyl)-2-indolinone] showed an IC50 of 4.2 µM.

On to `Cc1cnc(C=C2C(=O)Nc3ccccc32)s1` [SU5469, 3-[(5-Methylthiazol-2-yl)methylene]-2-indolinone], for which, on EGFR, the IC50 was found to be 28 µM.

Regarding `COc1cccc(C=C2C(=O)Nc3ccccc32)c1OC` [SU4794, 3-(2,3-dimethoxybenzylidenyl)-2-indolinone], on FLK-1 receptor (setting [3]), the IC50 came out at 11.8 µM.

For the molecule `CCOc1ccccc1C=C1C(=O)Nc2ccccc21` [SU5204, 3-(2-Ethoxybenzylidenyl]-2-indolinone], the IC50 against FLK-1 receptor (setting [3]) amounted to 4 µM.

`O=C1Nc2ccccc2C1=Cc1ccc(F)cc1` [SU5205, 3-(4-Fluorobenzylidenyl)-2-indolinone] displayed an IC50 at FLK-1 receptor (setting [3]) of 9.6 µM.

Regarding `Cc1[nH]c(C=C2C(=O)Nc3ccccc32)c(Br)c1Br` [SU5403, 3-[(3,4-Dibromo-5-methylpyrrol-2-yl)methylene]-2-indolinone], the IC50 on FLK-1 receptor (setting [3]) is 1.8 µM.

In turn, `Cc1c[nH]c(C=C2C(=O)Nc3ccccc32)c1C` [SU5406, 3-[(3,4-Dimethylpyrrol-2-yl)methylene]-2-indolinone] showed an IC50 against FLK-1 receptor (setting [3]) of 0.17 µM.

In turn, `O=C1Nc2ccccc2C1=Cc1sccc1Br` [SU5418, 3-[(3-Bromothiene-2-yl)methylene]-2-indolinone] gave an IC50 against FLK-1 receptor (setting [3]) of 15.4 µM.

Consider `COC(=O)CCc1c(C)c[nH]c1C=C1C(=O)Nc2ccccc21` [SU5407, 3-{[4-(2-methoxycarbonylethyl)-3-methylpyrrol-5-yl]methylene}-2-indolinone], for which the IC50 against FLK-1 receptor (setting [3]) came to 1.1 µM; on EGFR, 100 µM.

Molecule `CCc1c(C=C2C(=O)Nc3ccccc32)[nH]c(C)c1C` [SU5453, 3-[(4,5-Dimethyl-3-ethylpyrrol-2-yl)methylene]-2-indolinone] gave an IC50 at FLK-1 receptor (setting [3]) of 0.14 µM.

As for `CCOC(=O)c1c[nH]c(C=C2C(=O)Nc3ccccc32)c1C` [SU5463], the results for the IC50 against FLK-1 receptor (setting [3]) and at EGFR were 0.18 µM and 23 µM, respectively.

For `O=C1Nc2ccccc2C1=Cc1ccc(N2CCCC2)cc1` [SU5466, 3-[4-(Pyrrolidin-1-yl)benzylidenyl]-2-indolinone], the IC50 against FLK-1 receptor (setting [3]) was 1.6 µM; at EGFR it was 17 µM.

Consider `CCCCN(CCCC)c1ccc(C=C2C(=O)Nc3ccccc32)cc1` [SU4979, 3-(4-Di-n-butylaminobenzylidenyl)-2-indolinone], for which, on FLK-1 receptor (setting [3]), the IC50 came to 20.9 µM.

Regarding `CSc1ccc(C=C2C(=O)Nc3ccccc32)s1` [SU5419, 3-[(2-Methylmercaptothien-5-yl)methylene]-2-indolinone], the IC50 on FLK-1 receptor (setting [3]) came to 2.3 µM.

Turning to `CC(=O)Nc1ccc(C=C2C(=O)Nc3ccccc32)cc1` [SU4799, 3-(4-acetamidobenzylidenyl)-2-indolinone], the IC50 against FLK-1 receptor (setting [3]) was determined as 9 µM.

`Cc1cc(C=C2C(=O)Nc3ccccc32)oc1C` [SU5421, 3-[(2,3-Dimethylfuran-5-yl)methylene]-2-indolinone] returned an IC50 against FLK-1 receptor (setting [3]) of 4.6 µM.

Consider `O=C1Nc2ccccc2C1=Cc1ccco1` [SU4798, 3-[(furan-2-yl)methylene]-2-indolinone], for which the IC50 on FLK-1 receptor (setting [3]) amounted to 28.8 µM.

In turn, `CCc1c(C)[nH]c(C=C2C(=O)Nc3ccccc32)c1C` [SU5477, 3-[(4-Ethyl-3,5-dimethylpyrrol-2-yl)methylene]-2-indolinone] displayed an IC50 against FLK-1 receptor (setting [3]) of 0.15 µM.

Turning to `COc1ccccc1C=C1C(=O)Nc2ccccc21` [SU4949, 3-(2-Methoxybenzylidenyl)-2-indolinone], the IC50 with HUV-EC-C cells [1] turned out to be 3.4 µM; in the assay on HUV-EC-C cells [2], 3.7 µM.

In turn, “3-[(2-Sulphonylfuran-5-yl)methylene]-2-indolinone sodium salt [SU5428]” had an IC50 against FLK-1 receptor of 8.6 µM.
